In patent US8114641B2, “Methylbutanol as an advanced biofuel” (Synthetic Genomics, Inc., priority 2007, dated 2012):
Where two headings read alike, the source gives them in different places.

Key:
[1] = for Energy Content / Pump Octane (R + M)/2: 10% blend in gasoline; for Pump Octane (R + M)/2: RBOB with Pump Octane 80.85 and RVP 7.37; for Reid Vapor Pressure: measured with 9.5% volumetric blend in RBOB
[2] = based on literature review; cited from earlier work
[3] = Fuel properties of the neat fuel; conditions: for Pump Octane (R + M)/2: extrapolated from tests on blended fuels (blending octanes)
[4] = Physical properties of alcohol fuels and gasoline; assay type: physicochemical
[5] = Ether fuel testing (ULSD and hexadecane blends, neat ether); assay type: physicochemical
[6] = Enzyme assays of overexpressed ADH6 and ADH7 with crude extracts; assay type: biochemical; conditions: NADPH dependent
Method: Yeast ADH6 and ADH7 have been reported as broad substrate specificity alcohol dehydrogenases. These enzymes were therefore overexpressed in S. cerevisiae under the control of TEF promoter and enzyme assays were carried out with crude extracts. Both ADH6 and ADH7 were active on 2-methylbutanal and were NADPH dependent reductases.

[7] = Aldehyde reductase assay of purified ADH6 on 2-methyl butyraldehyde; assay type: biochemical
Method: Enzyme assays for aldehyde reductase activity were carried out in 100 mM citrate phosphate buffer pH6.2, 0.5 mM NADPH and 0.05 to 20 mM substrate (acetaldehyde or 2-methylbutanal). The reaction was monitored for 5 minutes at 340 nm for oxidation of NADPH to NADP+.

[8] = Endpoint assay for acetolactate synthase activity with pyruvate as substrate; assay type: biochemical; conditions: colorimetric detection at 546 nm, expressed in yeast
Method: FIG. 23 (a-d.) Endpoint assays for acetolactate synthase activity were carried out using pyruvate as substrate. The resulting acetolactate was converted to […] under acidic conditions. Acetone was reacted with α-naphtha for colorimetric detection at 546 nm. […] The reaction was only moderately subject to feedback inhibition by leucine, isoleucine and valine (b, c and d) which could be due to longer reaction times.

With `CCC(C)CO` (stereo not shown) [2-MBO, 2-methyl-1-butanol] the “Energy Content” value [1] was 113,963 BTU/gal, the “Pump Octane (R + M)/2” value [1] was 83.0 and the “Reid Vapor Pressure” value [1] was ~7^B psi. For the same molecule, the “Fuel Solubility in Water” value [2] was 3 wt %, the “Water Solubility in Fuel” value [2] was 9 wt % and the “Energy Content” value [3] was 113,627 BTU/gal. The “Reid Vapor Pressure” value [3] was 2.3 psi, the “Pump Octane (R + M)/2” value [3] was 102.0 and the “Boiling Point, max” value [4] was 130 °C. For the same molecule, the “Flash Point, min” value [4] was 43 °C and the “Freezing Point, max” value [4] was −70 °C.

In the case of `CCC(C)COCC(C)CC` (stereo not shown) [2MBO-ether, 2-methyl-1-(2-methylbutoxy)butane], the Flash [5] is reported as 118 ° F and the “Solubility in Water” value [5] is reported as under 500 ppm.

`CCCCCCCCCCCCCCCC` [Hexadecane, reference compound] gave a wear scar diameter [5] of 534 µm.

In the case of `CC(C)CCO` [3-MBO, 3-methyl-1-butanol], the “Energy Content” value [1] is reported as 113,824 BTU/gal, the “Pump Octane (R + M)/2” value [1] is reported as 82.0 and the “Reid Vapor Pressure” value [1] is reported as ~7^B psi. The “Fuel Solubility in Water” value [2] was 2 wt %, the “Water Solubility in Fuel” value [2] was 9 wt % and the “Energy Content” value [3] was 112,240 BTU/gal. For the same molecule, the “Reid Vapor Pressure” value [3] was 2.3 psi, the “Pump Octane (R + M)/2” value [3] was 101.0 and the “Boiling Point, max” value [4] was 130 °C. The “Flash Point, min” value [4] was 43 °C and the “Freezing Point, max” value [4] was −117 °C.

B1: ADH7: Saccharomyces cerevisiae NADPH-dependent alcohol dehydrogenase ADH7, SEQ ID NO: 72 (protein, listed as Saccharomyces cerevisiae)
chain: MLYPEKFQGIGISNAKDWKHPKLVSFDPKPFGDHDVDVEIEACGICGSDFHIAVGNWGPVPENQILGHEIIGRVVKVGSKCHTGVKIGDRVGVGAQALACFECERCKSDNEQYCTNDHVLTMWTPYKDGYISQGGFASHVRLHEHFAIQIPENIPSPLAAPLLCGGITVFSPLLRNGCGPGKRVGIVGIGGIGHMGILLAKAMGAEVYAFSRGHSKREDSMKLGADHYIAMLEDKGWTEQYSNALDLLVVCSSSLSKVNFDSIVKIMKIGGSIVSIAAPEVNEKLVLKPLGLMGVSISSSAIGSRKEIEQLLKLVSEKNVKIWVEKLPISEEGVSHAFTRMESGDVKYRFTLVDYDKKFHK
With B1 the “activity on 2-methylbutanal” value [6] was “active”.

B2: ADH6: Saccharomyces cerevisiae alcohol dehydrogenase ADH6, SEQ ID NO: 66 (protein, listed as Saccharomyces cerevisiae)
chain: MSYPEKFEGIAIQSHEDWKNPKKTKYDPKPFYDHDIDIKIEACGVCGSDIHCAAGHWGNMKMPLVVGHEIVGKVVKLGPKSNSGLKVGQRVGVGAQVFSCLECDRCKNDNEPYCTKFVTTYSQPYEDGYVSQGGYANYVRVHEHFVVPIPENIPSHLAAPLLCGGLTVYSPLVRNGCGPGKKVGIVGLGGIGSMGTLISKAMGAETYVISRSSRKREDAMKMGADHYIATLEEGDWGEKYFDTFDLIVVCASSLTDIDFNIMPKAMKVGGRIVSISIPEQHEMLSLKPYGLKAVSISYSALGSIKELNQLLKLVSEKDIKIWVETLPVGEAGVHEAFERMEKGDVRYRFTLVGYDKEFSD
With B2 the “activity on 2-methylbutanal” value [6] was “active”, the Km ([7]; purified His-tagged enzyme, pH6.2, 0.5 mM NADPH) was 360 µM and the “Vmax (cofactor oxidation rate) for 2-methyl butyraldehyde, fold higher than acetaldehyde” value ([7]; purified enzyme) was 1.3 fold.

B3: E. coli ilvG: Acetolactate synthase II, large subunit [Escherichia coli], SEQ ID NO: 39 (protein, listed as Escherichia coli)
chain: MNGAQWVVHALRAQGVNTVFGYPGGAIMPVYDALYDGGVEHLLCRHEQGAAMAAIGYARATGKTGVCIATSGPGATNLITGLADALLDSIPVVAITGQVSAPFIGTDAFQEVDILGLSLACTKHSFLVQSLEELPRIMAEAFDVASSGRPGPVLVDIPKDIQLASGDLEPWFTTVENEVTFPHAEVEQARQMLAKAQKPMLYVGGGVGMAQAVSALREFLAATKMPATCTLKGLGAVEADYPYYLGMLGMHGTKAANFAVQECDLLIAVGARFDDRVTGKLNTFAPHASVIHMDIDPAEMNKLRQAHVALQGDLNALLPALQQPLNINDWQQYCAQLRDEHTWRYDHPGDAIYAPLLLKQLSDRKPADCVVTTDVGQHQMWAAQHIAHTRPENFITSSGLGTMGFGLPAAVGAQVARPNDTVVCISGDGSFMMNVQELGTVKRKQLPLKIVLLDNQRLGMVRQWQQLFFQERYSETTLTDNPDFLMLASAFGIPGQHITRKDQVEAALDTMLNSDGPYLLHVSIDELENVWPLVPPGASNSEMLEKLS
For B3, the “acetolactate synthase activity on pyruvate” value [8] was “minimum activity”.

B4: E. coli ilvB: Acetolactate synthase I, large subunit [Escherichia coli], SEQ ID NO: 37 (protein, listed as Escherichia coli)
chain: MASSGTTSTRKRFTGAEFIVHFLEQQGIKIVTGIPGGSILPVYDALSQSTQIRHILARHEQGAGFIAQGMARTDGKPAVCMACSGPGATNLVTAIADARLDSIPLICITGQVPASMIGTDAFQEVDTYGISIPITKHNYLVRHIEELPQVMSDAFRIAQSGRPGPVWIDIPKDVQTAVFEIETQPAMAEKAAAPAFSEESIRDAAAMINAAKRPVLYLGGGVINAPARVRELAEKAQLPTTMTLMALGMLPKAHPLSLGMLGMHGVRSTNYILQEADLLIVLGARFDDRAIGKTEQFCPNAKIIHVDIDRAELGKIKQPHVAIQADVDDVLAQLIPLVEAQPRAEWHQLVADLQREFPCPIPKACDPLSHYGLINAVAACVDDNAIITTDVGQHQMWTAQAYPLNRPRQWLTSGGLGTMGFGLPAAIGAALANPDRKVLCFSGDGSLMMNIQEMATASENQLDVKIILMNNEALGLVHQQQSLFYEQGVFAATYPGKINFMQIAAGFGLETCDLNNEADPQASLQEIINRPGPALIHVRIDAEEKVYPMVPPGAANTEMVGE
With B4 the “acetolactate synthase activity on pyruvate” value [8] was “highest activity”.
